Laboratory results from article PMC12196476, “New Nitrogen-, Oxygen-, and Sulfur-Containing Heterocyclic Compounds as Anti-Colon Cancer Agents: Synthesis, Multitargeted Evaluations, Molecular Docking Simulations and ADMET Predictions” (Pharmaceuticals, 2025).

Experiments:
LoVo cells = experiment: Cell cycle assay (PI flow cytometry), LoVo; type: cell-based, human; settings: 30 µg/mL, 48 h, mean of n = 2 (Figure 1E); untreated control 11.51 ± 1.24%
Description: Cell proliferation depends on orderly progression through the phases of the cell cycle (G1−S−G2−M). Cytotoxic agents can impair the integrity of DNA, leading to checkpoint arrest at G1/S or G2/M, which subsequently blocks proliferation. To evaluate the impact of compound 3d on cell cycle distribution, colon carcinoma cells were treated with 30 µg/mL of 3d for 48 h, followed by DNA content analysis using flow cytometry. […] In contrast, in HCT-116 cells, 3d caused an accumulation in the G1 phase, reaching 60.17 ± 1.44% versus 47.37 ± 1.68% in untreated cells (Figure 1E). […]
medium served used as negative and positive controls, respectively. Percentages of viable cells […]
wells (final concentration of 100 μg/mL), compared to the negative control, and expressed as mean value (%) ± SD from two replicates. Graphing dose-response curves representing the compound […]
(HUVECs) at final concentration of 100 μg/mL . HUVECs were grown in Dulbecco’s Modified Eagle’s Medium supplemented with 10% FBS, 2 mM glutamine (Sigma Aldrich), 100 units/mL penicillin and […] streptomycin (Life Technologies; Paisley, UK).
S3.2.5. Cell cycle assay.
HCT-116 and LoVo cultures upon treatment with compound 3d. HCT-116 and LoVo carcinoma […]
μg/mL for 48 h. […] Then, cells […]
of stained cancerous cells were determined. […]
carcinoma cells treated with compound 3d was assessed using the TMRE Mitochondrial Membrane

[1] = Cell viability, LDH release assay, normal HUVECs; settings: human, normal HUVECs, Mean % of viable cells ± SD, HUVEC
[2] = DPPH radical scavenging assay; settings: three independent experiments; read-out: Mean IC50 (mM) for initial DPPH radicals ± SD

IC50 [2]: 0.164 ± 0.008 mM
SMILES: COc1cc(/C=N/c2ncnc3sc4c(c23)CCCC4)cc(OC)c1OC [Compound 3d, (E)-N-(5,6,7,8-Tetrahydrobenzo[4,5]thieno[2,3-d]pyrimidin-4-yl)-1-(3,4,5-trimethoxyphenyl)methanimine]
% of Cell population, LoVo: %G2/M (LoVo cells): 24.06 ± 1.32%
viability at 48 h, 100 µg/mL [1]: ~90%
